Measurements from patent US20250320246A1, “3-AZASTEROID COMPOUNDS FOR THE TREATMENT OF DISEASES RELATED TO MITROCHONDRIAL FUNCTION” (NZP UK LIMITED, priority 2022, published 2025).

System: sporadic PD patient fibroblasts
Assay: Cellular ATP levels in sporadic PD patient fibroblasts, Preliminary ATP assay
Format: cell-based, human
Settings: Homo sapiens, Fibroblast, 24 h, % of vehicle treated sPD fibroblasts, 3 sporadic PD patients; for activity at 0.1 µM: 100 nM, read-out: Average ATP Response 100 nM; for activity at 1 µM: read-out: Average ATP Response 1 μM
Procedure: In some cases, a preliminary ATP protocol was used in which EC50 was not determined. The preliminary ATP protocol is generally as described in Mortiboys et al 2008. Briefly, fibroblasts were cultured and plated into white, clear-bottom 384 well plates at a concentration of 4000 cells per well in 50 μl of media volume. The plates are left overnight in an incubator to allow the fibroblasts to adhere to the plate surface. The following morning the Glucose based medium is replaced with 25 μl of Galactose based medium. The cells were then dosed with 100 nM and 1 μM concentrations of the compounds using a ECHO 550 liquid handling system. After dosing the wells are topped up with a further 25 μl of Galactose based medium and then left in an incubator for 24 hours. Following this incubation, the medium is removed from the plate and the wells are washed twice with sterile PBS. The wells are filled with 20 μl of Sterile PBS followed by 10 μl of Lysis solution from the ATPlite™ Luminescence ATP detection assay system (Perkin Elmer), including 14 cell free wells to use as blank controls. The plate is then placed on a rotary shaker for 10 mins at 700 rpm. Following the shaking 10 μl of ATP substrate solution (Perkin Elmer) is added to each well and a further 5 min of shaking. The plate is then incubated in the dark for 10 minutes prior to reading. Using a FLUOstar® Omega plate reader, luminescence intensity is recorded. Following the ATP assay the plates are immediately assayed for DNA content in a CyQUANT® assay.
Immediately following The ATP assay DNA content is assessed with the CyQUANT® NF Cell Proliferation Assay Kit (ThermoFisher). CyQUANT® buffer is prepared immediately before the assay and is comprised of 2 μl CyQUANT® dye per ml×1 HBSS solution. 10 μl of CyQUANT® buffer is added to each well. Cell plates were then incubated for 1 hour before being read on a FLUOStar® Plate reader with excitation at 497 nm and emission at 520 nm.
The ATP Quantification for each well is determined as set out above.

| SMILES | activity at 0.1 µM | activity at 1 µM |
| --- | --- | --- |
| CC(C)C[C@H](NC(=O)CCC[C@@H](C)[C@H]1CC[C@H]2[C@@H]3[C@@H](O)C[C@@H]4CNCC[C@]4(C)[C@H]3CC[C@]12C)C(=O)O [Compound 75b, N-(3-Aza-7β-hydroxy-25-homo-5β-cholan-25-oyl)-(S)-2-amino-4-methylpentanoic acid] | 112% | 106% |
| CC[C@H](C)[C@H](NC(=O)CC[C@@H](C)[C@H]1CC[C@H]2[C@@H]3[C@@H](O)C[C@@H]4CNCC[C@]4(C)[C@H]3CC[C@]12C)C(=O)O [Compound 66a, N-(3-Aza-7β-hydroxy-5β-cholan-24-oyl)-(2S,3S)-2-amino-3-methylpentanoic acid] | 109% | 111% |
| C[C@H](CCC(=O)N[C@H](CC(=O)O)c1ccccc1)[C@H]1CC[C@H]2[C@@H]3[C@@H](O)C[C@@H]4CN(C)CC[C@]4(C)[C@H]3CC[C@]12C [Compound 54a, N-(3-Methyl-aza-7β-hydroxy-5β-cholan-24-oyl)-(R)-3-amino-3-phenylpropanoic acid] | 109% | 107% |
| C[C@H](CCC(=O)N1CCOCC1)[C@H]1CC[C@H]2[C@@H]3[C@@H](O)C[C@@H]4CNCC[C@]4(C)[C@H]3CC[C@]12C [Compound 56a, N-(3-Aza-7β-hydroxy-5β-cholan-24-oyl)-morpholine] | 109% | 100% |
| C[C@H](CCC(=O)NCC(=O)O)[C@H]1CC[C@H]2[C@@H]3[C@@H](O)C[C@@H]4CNCC[C@]4(C)[C@H]3CC[C@]12C [Compound 52a, N-(3-Aza-7β-hydroxy-5β-cholan-24-amide)-acetic acid] | 106% | 110% |
| CSCC[C@H](NC(=O)CC[C@@H](C)[C@H]1CC[C@H]2[C@@H]3[C@@H](O)C[C@@H]4CNCC[C@]4(C)[C@H]3CC[C@]12C)C(=O)O [Compound 61a, N-(3-Aza-7β-hydroxy-5β-cholan-24-oyl)-(S)-2-amino-4-(methylthio)butanoic acid] | 105% | 108% |
| C[C@H](CCC(=O)NCCS(=O)(=O)O)[C@H]1CC[C@H]2[C@@H]3[C@@H](O)C[C@@H]4CNCC[C@]4(C)[C@H]3CC[C@]12C [Compound 51a, N-(3-Aza-7β-hydroxy-5β-cholan-24-amide)-ethylsulfonic acid] | 101% | 107% |
| C[C@H](CCCC(=O)NC1CCOC1)[C@H]1CC[C@H]2[C@@H]3[C@@H](O)C[C@@H]4CN(C(=O)OCc5ccccc5)CC[C@]4(C)[C@H]3CC[C@]12C (stereo partly drawn) [Compound 80b, N-{(benzyloxycarbonyl)-3-aza-7β-hydroxy-25-homo-5β-cholan-25-oyl}-3-aminotetrahydrofuran] | 122% | 120% |
| CC(C)OC(=O)c1ccc(NC(=O)CC[C@@H](C)[C@H]2CC[C@H]3[C@@H]4[C@@H](O)C[C@@H]5CNCC[C@]5(C)[C@H]4CC[C@]23C)cc1 [Compound 63a, N-(3-Aza-7β-hydroxy-5β-cholan-24-oyl)-(isopropyl-4-aminobenzoate)] | 106% | 104% |
| C[C@H](CCC(=O)Nc1ccc(C(=O)O)cc1)[C@H]1CC[C@H]2[C@@H]3[C@@H](O)C[C@@H]4CNCC[C@]4(C)[C@H]3CC[C@]12C [Compound 60a, N-(3-Aza-7β-hydroxy-5β-cholan-24-oyl)-4-aminobenzoic acid] | 102% | 102% |
| C[C@H](CCC(=O)N(C1CCCCC1)C1CCCCC1)[C@H]1CC[C@H]2[C@@H]3[C@@H](O)C[C@@H]4CN(C)CC[C@]4(C)[C@H]3CC[C@]12C [Compound 59a, N-(Cyclohexyl)-N-(3-methyl-aza-7β-hydroxy-5β-cholan-24-oyl)-cyclohexanamine] | 106% | 99.7% |
| C[C@H](NC(=O)CC[C@@H](C)[C@H]1CC[C@H]2[C@@H]3[C@@H](O)C[C@@H]4CNCC[C@]4(C)[C@H]3CC[C@]12C)C(=O)O [Compound 68a, N-(3-Aza-7β-hydroxy-5β-cholan-24-oyl)-(S)-2-aminopropanoic acid] | 109% | 99% |
| CC(CC(=O)O)NC(=O)CCC[C@@H](C)[C@H]1CC[C@H]2[C@@H]3[C@@H](O)C[C@@H]4CNCC[C@]4(C)[C@H]3CC[C@]12C (stereo partly drawn) [Compound 74b, N-(3-Aza-7β-hydroxy-25-homo-5β-cholan-25-oyl)-3-aminobutanoic acid] | 103% | 98.5% |
| C[C@H](CCC(=O)NCC(F)C(=O)O)[C@H]1CC[C@H]2[C@@H]3[C@@H](O)C[C@@H]4CNCC[C@]4(C)[C@H]3CC[C@]12C (stereo partly drawn) [Compound 58a, N-(3-Aza-7β-hydroxy-5β-cholan-24-oyl)-3-amino-2-fluoropropanoic acid] | 102% | 103% |
| C[C@H](CCC(=O)N[C@@H](COC(C)(C)C)C(=O)O)[C@H]1CC[C@H]2[C@@H]3[C@@H](O)C[C@@H]4CN(C)CC[C@]4(C)[C@H]3CC[C@]12C [Compound 53a, N-(3-Methyl-aza-7β-hydroxy-5β-cholan-24-oyl)-(2S)-2-amino-3-[(2-methylpropan-2-yl)oxy]propanoic acid] | 109% | 102% |
| C[C@H](CCC(=O)N1CC2(COC2)C1)[C@H]1CC[C@H]2[C@@H]3[C@@H](O)C[C@@H]4CN(C(=O)OCc5ccccc5)CC[C@]4(C)[C@H]3CC[C@]12C [Compound 78a, N-{(benzyloxycarbonyl)-3-aza-7β-hydroxy-5β-cholan-24-oyl}-2-oxa-6-azospiro{3,3}heptane] | 121% | 120% |
| C[C@H](CCCC(=O)N[C@@H](CC(=O)O)C(=O)O)[C@H]1CC[C@H]2[C@@H]3[C@@H](O)C[C@@H]4CNCC[C@]4(C)[C@H]3CC[C@]12C [Compound 70b, N-(3-Aza-7β-hydroxy-25-homo-5β-cholan-25-oyl)-(S)-2-aminobutanedioic acid] | 106% | 107% |
| C[C@H](CCC(=O)N1Cc2ccccc2C1)[C@H]1CC[C@H]2[C@@H]3[C@@H](O)C[C@@H]4CNCC[C@]4(C)[C@H]3CC[C@]12C [Compound 81a] | 94.2% | 102% |
| C[C@H](CCC(=O)NCCC(=O)O)[C@H]1CC[C@H]2[C@@H]3[C@@H](O)C[C@@H]4CNCC[C@]4(C)[C@H]3CC[C@]12C [Compound 62a, N-(3-Aza-7β-hydroxy-5β-cholan-24-amide)-propanoic acid] | 108% | 108% |
| C[C@H](CCCC(=O)NCCCC[C@H](N)C(=O)O)[C@H]1CC[C@H]2[C@@H]3[C@@H](O)C[C@@H]4CNCC[C@]4(C)[C@H]3CC[C@]12C [Compound 76b, N-(3-Aza-7β-hydroxy-25-homo-5β-cholan-25-oyl)-(2S)-2,6-diaminohexanoic acid] | 105% | 106% |
